Publication PMC11758221, “Late-Stage Minimal Labeling of Peptides and Proteins for Real-Time Imaging of Cellular Trafficking” (ACS Central Science, 2024)
Like-named read-outs stand apart in the source and are kept apart here. Where a SMILES comes first, the peptide text is derived from it. Where no end group is shown, it is not given here. The star is where a group is joined. X1 = O=[N+]([O-])c1ccc(*)c2nsnc12

Experiments:
[1] = test system: Human red blood cells; assay: Haemolysis assay; assay type: cell-based
Method: H aemolysis assays. […] H u man red bl ood cel l s w ere separated f rom seru m an d w ash ed i n ph osph ate- bu ff ered sal i n e (P B S , pH 7.4) with 4–5 ti mes cen tri f u gati on at 4000 rpm f o r 1 mi n . E ryth rocytes w ere th en resu spended in PBS as a 0.5% (v/v) sol u ti on , an d co- i n cu bated w i th seri al l y di l u ted pepti des i n a 96-w el l pl ate f o r 1 h at 37 °C . […] PBS and […]
0 .0 1 % (v /v ) Tri to n X-100 w ere u sed as con trol s to establ i sh 0% an d 100% of h aemol ysis, respecti vel y. […]

[2] = test system: RAW264.7 macrophages expressing the chemokine receptor CCR2; assay: Confocal imaging of receptor-mediated endocytosis of the labeled chemokine; assay type: cell-based, mouse; details: RAW264.7 cells, 4 μM, 1 h
Excerpt: Figure 6 Site-selective mCCL2 chemokine labeling and real-time imaging of receptor-mediated endocytosis in live macrophages. A) Schematic representation of the chemokine mCCL2 (PDB: 1DOK) depicting the incorporation of SNBD at the C-terminal end. B) Coomassie-stained and in-gel fluorescence scanning of unlabeled mCCL2, mCCL2-SNBD, and the Pd-SNBD complex. C) Mass spectrometry analysis of unlabeled mCCL2 and mCCL2-SNBD proteins. D) Representative fluorescence confocal microscopy images of RAW264.7 cells after incubation with mCCL2-SNBD for 1 h. Left panel: untreated cells; middle panel: cells treated with mCCL2-SNBD (4 μM); right panel: cells treated with mCCL2-SNBD (4 μM) and the CCR2 antagonist RS102895 (40 μM) (exc/em: 405/515 nm). Insets show the corresponding brightfield images. Scale bars: 25 μm. […]
Next, we acquired fluorescence microscopy images in live RAW264.7 macrophages as a murine macrophage cell line expressing the chemokine receptor CCR2.[64] We incubated the macrophages with mCCL2-SNBD, and fluorescence images were taken after 1 hour without any washing steps. […]
[…] Th e si gn al s w ere recorded as mi l l i degrees at 25 °C , an d th e mean resi du e el l i pti ci ty (MR E ) w as cal cu l ated accordi n g to [θ] […]

[3] = Chemical stability in PBS, cell culture media and reducing environments; assay type: physicochemical
Method: Next, we investigated the optical properties and stability of the S-aryl linkage in the two labeled peptides P1-SNBD and cP1-SNBD. We examined their chemical stability after incubation in phosphate buffered saline (PBS, pH 7.0) at 25 °C and cell culture media at 37 °C (Figures S6 and S7) as well as different biologically relevant reducing environments (Figure S8). […] Finally, we measured the emission spectra of P1-SNBD and cP1-SNBD and confirmed that the two peptides retained the fluorogenic behavior of benzodiazoles (Figure S9).

[4] = Stability of labeled peptide with reducing bioanalytes (HPLC); assay type: physicochemical; details: peptide 250 µM in PBS pH 7.8, 37 °C
Method: 5 mM gl u tath i on e >95% >95% >95%
Figure S8. Stability analysis of P1-SNBD under physiological conditions. […]

[5] = red cells of human, 1 h, pH 7.4
[6] = human red blood cells 0.5% (v/v) in PBS pH 7.4, 1 h at 37 °C, haemoglobin absorbance 405 nm, 0.01% Triton X-100 = 100%, Hill fit with maximum constrained to 100%, read-out: hemolytic activity EC50

With CC[C@H](C)[C@H](NC(=O)[C@H](CCCCN)NC(=O)[C@@H](NC(=O)[C@H](CCC(N)=O)NC(=O)[C@@H](N)CCCNC(=N)N)[C@@H](C)CC)C(=O)N[C@@H](Cc1c[nH]c2ccccc12)C(=O)N[C@@H](Cc1ccccc1)C(=O)N[C@@H](CCC(N)=O)C(=O)N[C@@H](CC(N)=O)C(=O)N[C@@H](CCCNC(=N)N)C(=O)N[C@@H](CCCNC(=N)N)C(=O)N[C@@H](CCSC)C(=O)N[C@@H](CCCCN)C(=O)N[C@@H](Cc1c[nH]c2ccccc12)C(=O)N[C@@H](CCCCN)C(=O)N[C@@H](CCCCN)C(=O)N[C@@H](CSc1ccc([N+](=O)[O-])c2nsnc12)C(N)=O [penetratin-SNBD] the EC50 [1, 5] was 27 ± 3 µM.

CC[C@H](C)[C@H](NC(=O)[C@H](CCCCN)NC(=O)[C@@H](NC(=O)[C@H](CCC(N)=O)NC(=O)[C@@H](N)CCCNC(=N)N)[C@@H](C)CC)C(=O)N[C@@H](Cc1c[nH]c2ccccc12)C(=O)N[C@@H](Cc1ccccc1)C(=O)N[C@@H](CCC(N)=O)C(=O)N[C@@H](CC(N)=O)C(=O)N[C@@H](CCCNC(=N)N)C(=O)N[C@@H](CCCNC(=N)N)C(=O)N[C@@H](CCSC)C(=O)N[C@@H](CCCCN)C(=O)N[C@@H](Cc1c[nH]c2ccccc12)C(=O)N[C@@H](CCCCN)C(=O)N[C@@H](CCCCN)C(N)=O [penetratin, reference compound] gave an EC50 [1, 6] of 34 ± 5 µM.

N=C(N)NCCC[C@H](NC(=O)CNC(=O)[C@@H](N)Cc1ccc(O)cc1)C(=O)N[C@@H](CCCCN)C(=O)N[C@@H](CCCCN)C(=O)N[C@@H](CCCNC(=N)N)C(=O)N[C@@H](CCCNC(=N)N)C(=O)N[C@@H](CCC(N)=O)C(=O)N[C@@H](CCCNC(=N)N)C(=O)N[C@@H](CCCNC(=N)N)C(=O)N[C@@H](CCCNC(=N)N)C(=O)N1CCC[C@H]1C(=O)N[C@@H](CCC(N)=O)C(N)=O [TAT, reference compound] gave an EC50 [1, 6] of 79 ± 6 µM.

With “mCCL2-SNBD: mCCL2 labeled with SNBD at the C-terminal Cys, 9063.6 Da” the “internalization in presence of CCR2 antagonist” value ([2]; RS102895 40 μM pre-incubated 15 min) was “substantially reduced intracellular fluorescence emission” and the “internalization in live macrophages” value ([2]; no washing steps) was “bright fluorescence signals distributed across the cytosol”.

“GLRKRLRKFRNKIKEK-NH2 [sC18, reference compound]” gave an EC50 [1, 6] of 70 ± 4 µM.

CC[C@H](C)[C@H](NC(=O)[C@H](CCCCN)NC(=O)[C@H](CC(N)=O)NC(=O)[C@H](CCCNC(=N)N)NC(=O)[C@H](Cc1ccccc1)NC(=O)[C@H](CCCCN)NC(=O)[C@H](CCCNC(=N)N)NC(=O)[C@H](CC(C)C)NC(=O)[C@H](CCCNC(=N)N)NC(=O)[C@H](CCCCN)NC(=O)[C@H](CCCNC(=N)N)NC(=O)[C@H](CC(C)C)NC(=O)CN)C(=O)N[C@@H](CCCCN)C(=O)N[C@@H](CCC(=O)O)C(=O)N[C@@H](CCCCN)C(=O)N[C@@H](CSc1ccc([N+](=O)[O-])c2nsnc12)C(N)=O [sC18-SNBD] (H-GLRKRLRKFRNKIKEKC(X1)-NH2) showed an EC50 [1, 5] of 43 ± 3 µM.

For CC(C)C[C@H](NC(=O)[C@H](Cc1ccc(O)cc1)NC(=O)[C@H](CCCNC(=N)N)NC(=O)[C@H](CO)NC(=O)[C@H](CSc1ccc([N+](=O)[O-])c2nsnc12)NC(=O)[C@H](C)NC(=O)[C@H](Cc1ccc(O)cc1)NC(=O)[C@H](CC(C)C)NC(=O)[C@@H](N)CCCCN)C(N)=O [P1-SNBD] (H-KLYAC(X1)SRYL-NH2), the chemical stability ([3]; cell culture media at 37 °C) was “no major degradation”, the chemical stability ([3]; different biologically relevant reducing environments) was “no major degradation” and the chemical stability ([3]; phosphate buffered saline (PBS, pH 7.0) at 25 °C) was “no major degradation”. The “Peptide stability, percentage relative to peptide without bioanalyte” value ([4]; 1 mM NADH, 3 h) was greater than 95%, the “Peptide stability, percentage relative to peptide without bioanalyte” value ([4]; 1 mM NADH, 24 h) was greater than 95% and the “Peptide stability, percentage relative to peptide without bioanalyte” value ([4]; 1 mM NADH, 48 h) was greater than 95%. The “Peptide stability, percentage relative to peptide without bioanalyte” value ([4]; 5 mM glutathione, 3 h) was greater than 95%, the “Peptide stability, percentage relative to peptide without bioanalyte” value ([4]; 5 mM glutathione, 24 h) was greater than 95% and the “Peptide stability, percentage relative to peptide without bioanalyte” value ([4]; 5 mM glutathione, 48 h) was greater than 95%.

Work on N=C(N)NCCC[C@H](NC(=O)CNC(=O)[C@@H](N)Cc1ccc(O)cc1)C(=O)N[C@@H](CCCCN)C(=O)N[C@@H](CCCCN)C(=O)N[C@@H](CCCNC(=N)N)C(=O)N[C@@H](CCCNC(=N)N)C(=O)N[C@@H](CCC(N)=O)C(=O)N[C@@H](CCCNC(=N)N)C(=O)N[C@@H](CCCNC(=N)N)C(=O)N[C@@H](CCCNC(=N)N)C(=O)N1CCC[C@H]1C(=O)N[C@@H](CCC(N)=O)C(=O)N[C@@H](CSc1ccc([N+](=O)[O-])c2nsnc12)C(N)=O [TAT-SNBD] yielded an EC50 [1, 6] of 53 ± 2 µM.
